Results from patent publication US9725483B2, “Compounds for the treatment and/or care of the skin and/or mucous membranes and their use in cosmetic or pharmaceutical compositions” (LUBRIZOL ADVANCED MATERIALS, INC., priority 2012, dated 2017).
Residues, ends and D or L forms follow the SMILES beside them.

How the values were obtained:
[1] = tested on: collagenase; test: Anti-collagenase activity, fluorescein-derivatized gelatin; format: biochemical; settings: collagenase 0.4 U/mL, 2 hours
Method: Different concentrations of the peptide Ac-L-Ala-L-Thr-L-Asn-L-Thr-OH (Ac-(SEQ ID NO: 16)-OH) were incubated in a 96-well plate together with fluorescein-derivatized gelatin, a fluorescent marker. Next, collagenase (0.4 U/mL) was added and incubated at room temperature protected from sunlight for 2 hours, after which the fluorescence (λexc=495 nm and λem=515 nm) was measured at different points, thus the breakage in the derivatized gelatin could be quantified. As a positive control 1,10-phenanthroline was used, a metal chelator which acts as an inhibitor of metalloproteases.

[2] = tested on: IL-6 release induced by LL-37 in primary human keratinocytes; test: Inhibition of the release of IL-6 induced by LL-37 in primary human keratinocytes (ELISA); format: cell-based; settings: carrier = 100%
Method: (§1) Solutions of the compounds of the invention were prepared in Eppendorf tubes at the desired concentrations in complete Epilife® medium with and without LL-37 at 50 μg/mL in a final volume of 250 μL. The mixtures were incubated in rotation for 1 hour at room temperature. After the preincubation hour the samples were collected and they were given a quick pulse in the centrifuge to push all the solution to the bottom of the tube. Without removing the incubation medium, it was added to the 50 μL/well cells of the previous mixtures in quadruplicate and the plate was incubated at 37° C. in a CO2 incubator for 1 hour. After the hour of incubation, 50 μL/well of complete Epilife® medium were added. They were incubated for another 5 hours to allow the release of pro-inflammatory cytokines induced by LL-37 for their subsequent quantification by ELISA. After the 5 hours, the […] of supernatants were collected with the multi-channel pipette and passed to a new 96-well plate and the quantity of IL-6 and IL-8 released was determined by the Human IL-6 ELISA Ready-SET-GO!® and Human IL-8 ELISA Ready-SET-GO!® commercial kits (eBioscience, Inc.) following the supplier's instructions. The absorbency of each well was determined by reading a Multiskan Ascent Reader spectrophotometer at 450 nm correcting for each determination with its corresponding reading at 570 nm. The standardized relative levels of IL-6 and IL-8 were calculated with regard to the absorbency corresponding to the treatment of the cells with carrier. Next, the total number of cells per well was quantified with Cristal Violeta, in order to be able to calculate the percentage of interleukins released per cell.
(§2) In table 4 the results obtained from the release of IL-8 are detailed.

[3] = tested on: IL-8 release induced by LL-37 in primary human keratinocytes; test: Inhibition of the release of IL-8 induced by LL-37 in primary human keratinocytes (ELISA); format: cell-based; settings: carrier = 100%
Method: as §1, §2

[4] = tested on: tyrosinase; test: Anti-tyrosinase activity, L-DOPA substrate; format: biochemical
Method: Different concentrations of the peptide […]-OH (Ac-(SEQ ID NO: 16)-OH) were incubated in a 96-well plate together with L-DOPA in a HEPES buffer for 30 minutes at 37° C. After incubation, the tyrosinase enzyme was added and incubated for 10 minutes. The reaction was stopped freezing the plate at -20° C. for 5 minutes, after which the absorbency was measured at λexc=490 nm in a microplate reader. As a positive control kojic acid was added, a substance with known anti-tyrosinase activity.

[5] = tested on: human epidermal melanocytes; test: Inhibition of melanogenesis in human epidermal melanocytes; format: cell-based; settings: repeated treatment to day 10, control (culture medium) = 100
Method: Primary human melanocytes were cultivated in medium 254 supplemented by HMGS and antibiotics. The cells were grown for 72 hours after which the medium was changed to 254 supplemented by HMGS-2 and antibiotics. The cells were grown until confluence for 2 weeks, changing the medium every 2-3 days. After two weeks, the cells were trypsinized and seeded in 6-well plates. After being incubated for a whole night at 37° C. and 5% of CO2, the first treatment with the peptide was carried out at different concentrations. As a negative control, only medium was added. The treatment was repeated on days 3, 6, 8 and 10, after which the cells were trypsinized and the number counted with a cell counter. Melanin was quantified by measuring the absorbency at 450 nm with a microplate reader and the value was standardized with regard to the total number of cells per well, expressed as picograms of melanin per cell from a calibration line prepared with synthetic melanin dissolved in 1 N NaOH with 10% DMSO.

[6] = target: LL-37, cathelicidin C-terminal antimicrobial peptide (UniProt P49913); test: cell-based or functional assay
[7] = target: tyrosinase; test: cell-based or functional assay
[8] = target: collagenase; test: cell-based or functional assay
[9] = peptide 0.025 mg/mL + LL-37 0.05 mg/ml
[10] = peptide 0.1 mg/mL + LL-37 0.05 mg/ml
[11] = peptide 0.5 mg/mL + LL-37 0.05 mg/ml

With `c1cnc2c(c1)ccc1cccnc12` [1,10-phenanthroline, reference compound] the “% collagenase inhibition” value ([1]; 40 μg/mL) was 95.19%.

In the case of `CC(=O)N[C@@H](C)C(=O)N[C@H](C(=O)N[C@@H](CC(N)=O)C(=O)N[C@H](C(=O)O)[C@@H](C)O)[C@@H](C)O` [Ac-L-Ala-L-Thr-L-Asn-L-Thr-OH] (Ac-ATNT-OH), the “% IL-6” value [2, 9] is reported as 107.25%, the “% IL-6” value [2, 10] is reported as 94.65% and the “% IL-6” value [2, 11] is reported as 92.90%. For the same compound, the “% IL-8” value [3, 9] was 132.70%, the “% IL-8” value [3, 10] was 124.76% and the “% IL-8” value [3, 11] was 109.39%. For the same compound, the “% tyrosinase inhibition” value ([4]; 2 mg/mL) was 38.23%, the “% tyrosinase inhibition” value ([4]; 3 mg/mL) was 76.01% and the “% tyrosinase inhibition” value ([4]; 4 mg/mL) was 86.45%. The “% melanin (pg/cel)” value ([5]; 0.25 mg/mL) was 45.7 ± 3.2%, the “% melanin (pg/cel)” value ([5]; 0.625 mg/mL) was 55.8 ± 2.8% and the “% collagenase inhibition” value ([1]; 2 mg/mL) was 29.21%. For the same compound, the “% collagenase inhibition” value ([1]; 10 mg/mL) was 100%.

`O=c1cc(CO)occ1O` [kojic acid, reference compound] was tested, and the “% tyrosinase inhibition” value ([4]; 140 μg/mL) was 85.79%.

“Ac-L-Ala-L-Thr-L-Asn-L-Thr-OH (Ac-(SEQ ID NO: 16)-OH) (peptide)” was tested, and the % IL-6 released by primary human keratinocytes (ELISA), peptide 0.025 mg/mL; carrier 100%, LL-37 0.05 mg/ml alone 122.28% [6] was 107%, the % IL-6 released by primary human keratinocytes (ELISA), peptide 0.1 mg/mL + LL-37 0.05 mg/ml; carrier 100%, LL-37 alone 122.28% [6] was 94.7% and the % IL-6 released by primary human keratinocytes (ELISA), peptide 0.5 mg/mL + LL-37 0.05 mg/ml; carrier 100%, LL-37 alone 122.28% [6] was 92.9%. It also gave a % IL-8 released by primary human keratinocytes (ELISA), peptide 0.025 mg/mL + LL-37 0.05 mg/ml; carrier 100%, LL-37 alone 142.65% [6] of 133%, a % IL-8 released by primary human keratinocytes (ELISA), peptide 0.1 mg/mL + LL-37 0.05 mg/ml; carrier 100%, LL-37 alone 142.65% [6] of 125% and a % IL-8 released by primary human keratinocytes (ELISA), peptide 0.5 mg/mL + LL-37 0.05 mg/ml; carrier 100%, LL-37 alone 142.65% [6] of 109%. The % tyrosinase inhibition (L-DOPA oxidation, absorbance 490 nm), peptide 2 mg/mL [7] was 38.2%, the % tyrosinase inhibition (L-DOPA oxidation, absorbance 490 nm), peptide 3 mg/mL [7] was 76% and the % tyrosinase inhibition (L-DOPA oxidation, absorbance 490 nm), peptide 4 mg/mL [7] was 86.5%. For the same compound, the % collagenase inhibition (cleavage of fluorescein-derivatized gelatin, collagenase 0.4 U/mL), peptide 2 mg/mL [8] was 29.2% and the % collagenase inhibition (cleavage of fluorescein-derivatized gelatin, collagenase 0.4 U/mL), peptide 10 mg/mL [8] was 100%.

For “Ac-L-Ser-L-Val-L-Arg-L-Val-L-Ala-L-Val-NH2 (Ac-(SEQ ID NO: 2)-NH2) (peptide)”, the % IL-6 released by primary human keratinocytes (ELISA), peptide 0.025 mg/mL + LL-37 0.05 mg/ml; carrier 100%, LL-37 alone 122.28% [6] was 108%, the % IL-6 released by primary human keratinocytes (ELISA), peptide 0.1 mg/mL + LL-37 0.05 mg/ml; carrier 100%, LL-37 alone 122.28% [6] was 96% and the % IL-6 released by primary human keratinocytes (ELISA), peptide 0.5 mg/mL + LL-37 0.05 mg/ml; carrier 100%, LL-37 alone 122.28% [6] was 93.2%. The % IL-8 released by primary human keratinocytes (ELISA), peptide 0.025 mg/mL + LL-37 0.05 mg/ml; carrier 100%, LL-37 alone 142.65% [6] was 133%, the % IL-8 released by primary human keratinocytes (ELISA), peptide 0.1 mg/mL + LL-37 0.05 mg/ml; carrier 100%, LL-37 alone 142.65% [6] was 125% and the % IL-8 released by primary human keratinocytes (ELISA), peptide 0.5 mg/mL + LL-37 0.05 mg/ml; carrier 100%, LL-37 alone 142.65% [6] was 109%.

For “Ac-L-Ser-L-Val-L-Arg-L-Val-L-Ala-L-Val-NH2 (Ac-SVRVAV-NH2)”, the “% IL-6” value [2, 9] was 108.35%, the “% IL-6” value [2, 10] was 95.96% and the “% IL-6” value [2, 11] was 93.15%. For the same compound, the “% IL-8” value [3, 9] was 132.92%, the “% IL-8” value [3, 10] was 125.05% and the “% IL-8” value [3, 11] was 109.24%.

“LL-37: cathelicidin C-terminal antimicrobial peptide, used to induce release of IL-6 and IL-8 (LLGDFFRKSKEKIGKEFKRIVQRIKDFLRNLVPRTES; Antibacterial peptide LL-37; UniProt P49913 134-170, looked up) [reference compound]” was tested, and the “% IL-6” value ([2]; LL-37 0.05 mg/ml alone (positive control)) was 122.28% and the “% IL-8” value ([3]; LL37 0.05 mg/ml alone (positive control)) was 142.65%.
